Measured values published in patent US9278994B2, “Short antimicrobial lipopeptides” (Helix BioMedix Inc., priority 2012, dated 2016).
Values after ≈ are worked out from the molar mass of the structure shown. Where a SMILES comes first, the peptide text is derived from it. [ ]: non-standard residue; d: D form. The star is where a group is joined. Palmitoyl = CCCCCCCCCCCCCCCC(=O)*

What was measured:
[1] = test system: EpiDerm (EPI-200) skin tissue; test: Skin tissue toxicity, EpiDerm skin model with MTT assay; assay type: cell-based; settings: tissue viability (MTT), treated 20 hr
Experimental: 4. Skin tissue toxicity determination. Skin toxicity and compatibility was determined using EpiDerm (EPI-200) skin tissue and MTT Kit (MTT-100) (MatTek, Ashland, Mass.) according to the manufacture's instruction. 1% Triton X-100 and PBS were used as positive (toxic) and negative (non-toxic) control, respectively.
Potential for dermal irritancy of the lipodipeptides was tested using EpiDerm™ Skin Model (MatTek, Ashland, Mass.) in combination with a modified MTT assay. […] EpiDerm™ consists of organized basal, spinous, granular, and cornified layers analogous to those found in vivo. The tissues were treated with each compound at desired concentration for 20 hr.

S. aureus SAP0017 (MRSA) [2] = test system: S. aureus SAP0017 (MRSA)
S. aureus SAP0017 (MRSA) [3] = assay type: cell-based, Staphylococcus aureus; settings: for logs of S. aureus eradicated in a kill assay: SAP0017
Experimental: (§1) 3. […] The minimal inhibitory concentration (MIC) of each peptide was determined using modified CLSI microtiter broth dilution assay (Methods for Dilution Antimicrobial Susceptibility Tests for Bacteria That Grow Aerobically; Approved Standard—Ninth Edition). An inoculum of 10^5-10^6 colony forming units (CFU)/ml was used or 10^4 CFU/ml for yeast. The MIC value was taken as the lowest peptide concentration at which more than 90% of microbial growth was inhibited after 15 to 20 h of incubation at 37° C. For P. acnes, the incubation was kept under anaerobic condition at 37° C. for 2 weeks before MIC was determined Kill kinetics was performed using a given concentration (about 2-5-fold MIC) of peptide mixed with indicator microorganism. After appropriate dilution the cells were plated on agar plates after defined time intervals and incubated at 37° C. overnight. In the case of P. acnes an extended incubation period was required. The CFU was counted and plotted as survival of bacteria after peptide treatment over time, which indicates the effectiveness of a peptide to kill a microbe.

P. acnes = assay type: cell-based, Propionibacterium acnes
[4] = test system: S. aureus and C. albicans; settings: Cutuli et al. 2000, no MIC determined; cited from earlier work
[5] = test system: C. albicans strain SC5314; settings: Rauch et al. 2009; cited from earlier work
[6] = test system: histamine induced IL-6 expression; test: Anti-inflammatory activity in keratinocytes (data not shown); assay type: cell-based; settings: human skin keratinocytes
From the text: We modified both peptides via N-terminal acetylation with lipids of various lengths to the alpha amino group of KPV and KdPT.

P. acnes ATCC11827 = test: Kill kinetics in PBS; assay type: cell-based, Propionibacterium acnes; settings: detection limit 10 CFU/ml
Experimental: as §1

CCCCCCCCCCCCCCCC(=O)N[C@@H](CCCCN)C(=O)N1CCC[C@H]1C(=O)N[C@@H](CC(C)C)C(N)=O [HB2209, Pal-KPL-NH2] (Palmitoyl-Lys-Pro-Leu-NH2)
Toxicity EpiDerm [1]: >2000 µg/mL
MIC C. albicans (C. albicans 105): 32 µg/mL (≈ 0.0539 mM)
MIC E. coli (E. coli UB1005): >2000 µg/mL
MIC S. aureus (S. aureus SAP0017 (MRSA) [2]): 16 µg/mL (≈ 0.0269 mM)
logs of S. aureus eradicated in a kill assay (S. aureus SAP0017 (MRSA) [3]): 5-6 logs
MIC P. acnes (P. acnes): 4 to 8 µg/mL

lysine-proline-valine [KPV]
antimicrobial activity in phosphate buffer [4]: antimicrobial activity
concentration up to which yeast growth was not inhibited [5]: > 100 µM

NCCCC[C@H](N)C(=O)N1CCC[C@@H]1C(N)=O [HB2231, K-dP-NH2] (H-Lys-[dP]-NH2; N-terminus assumed)
anti-inflammatory activity against histamine induced IL-6 expression [6]: moderate anti-inflammatory activity
MIC C. albicans (C. albicans 105): >2000 µg/mL
MIC E. coli (E. coli UB1005): >2000 µg/mL
MIC S. aureus (S. aureus SAP0017 (MRSA) [2]): >2000 µg/mL
MIC P. acnes (P. acnes): >2000 µg/mL

CC(C)[C@H](NC(=O)[C@@H]1CCCN1C(=O)[C@@H](N)CCCCN)C(=O)O [HB2067, KPV-OH, reference compound] (H-Lys-Pro-Val-OH)
Toxicity EpiDerm [1]: >2000 µg/mL
MIC C. albicans (C. albicans 105): >2000 µg/mL
MIC E. coli (E. coli UB1005): >2000 µg/mL
MIC S. aureus (S. aureus SAP0017 (MRSA) [2]): >2000 µg/mL
MIC P. acnes (P. acnes): >2000 µg/mL

NCCCC[C@H](N)C(=O)N1CCC[C@H]1C(N)=O [HB2230, KP-NH2] (H-Lys-Pro-NH2; N-terminus assumed)
anti-inflammatory activity against histamine induced IL-6 expression [6]: moderate anti-inflammatory activity
MIC C. albicans (C. albicans 105): >2000 µg/mL
MIC E. coli (E. coli UB1005): >2000 µg/mL
MIC S. aureus (S. aureus SAP0017 (MRSA) [2]): >2000 µg/mL
MIC P. acnes (P. acnes): >2000 µg/mL

CCCCCCCCCCCCCCCC(=O)N[C@@H](CCCCN)C(=O)N1CCC[C@H]1C(=O)N[C@H](C(N)=O)C(C)C [HB2180, Pal-KPV-NH2] (Palmitoyl-Lys-Pro-Val-NH2)
Toxicity EpiDerm [1]: >2000 µg/mL
MIC C. albicans (C. albicans 105): 16 µg/mL (≈ 0.0276 mM)
MIC E. coli (E. coli UB1005): 128 µg/mL (≈ 0.221 mM)
MIC S. aureus (S. aureus SAP0017 (MRSA) [2]): 8 µg/mL (≈ 0.0138 mM)
logs of S. aureus eradicated in a kill assay (S. aureus SAP0017 (MRSA) [3]): 5-6 logs
MIC P. acnes (P. acnes): 1 to 2 µg/mL

CCCCCCCCCCCCCCCC(=O)N[C@@H](CCCCN)C(=O)N1CCC[C@H]1C(=O)N[C@@H](C)C(N)=O [HB2208, Pal-KPA-NH2] (Palmitoyl-Lys-Pro-Ala-NH2)
Toxicity EpiDerm [1]: >2000 µg/mL
MIC C. albicans (C. albicans 105): 16 µg/mL (≈ 0.029 mM)
MIC E. coli (E. coli UB1005): 128 µg/mL (≈ 0.232 mM)
MIC S. aureus (S. aureus SAP0017 (MRSA) [2]): 16 µg/mL (≈ 0.029 mM)
logs of S. aureus eradicated in a kill assay (S. aureus SAP0017 (MRSA) [3]): 5-6 logs
MIC P. acnes (P. acnes): 1 µg/mL (≈ 0.00181 mM)

CCCCCCCCCCCCCCCC(=O)N[C@@H](CCCCN)C(=O)N1CCC[C@@H]1C(=O)N[C@H](C(N)=O)[C@@H](C)O [HB2178, Pal-K-dPT-NH2] (Palmitoyl-Lys-[dP]-Thr-NH2)
Toxicity EpiDerm [1]: >2000 µg/mL
survival of microbes (CFU/ml), 0 hr (P. acnes ATCC11827; 0 hr): 750000 CFU/ml
survival of microbes (CFU/ml), 20 min (P. acnes ATCC11827; 20 min): 20 CFU/ml
survival of microbes (CFU/ml), 1 hr (P. acnes ATCC11827; 1 hr): <10 CFU/ml
survival of microbes (CFU/ml), 2 hr (P. acnes ATCC11827; 2 hr): <10 CFU/ml
survival of microbes (CFU/ml), 3 hr (P. acnes ATCC11827; 3 hr): <10 CFU/ml
MIC C. albicans (C. albicans 105): 16 µg/mL (≈ 0.0275 mM)
survival of microbes (CFU/ml), 0 hr (S. aureus SAP0017 (MRSA) [3]; S. aureus in PBS, 0 hr, detection limit 10 CFU/ml): 23050000 CFU/ml
survival of microbes (CFU/ml), 20 min (S. aureus SAP0017 (MRSA) [3]; S. aureus in PBS, 20 min, detection limit 10 CFU/ml): <10 CFU/ml
survival of microbes (CFU/ml), 1 hr (S. aureus SAP0017 (MRSA) [3]; S. aureus in PBS, 1 hr, detection limit 10 CFU/ml): <10 CFU/ml
survival of microbes (CFU/ml), 2 hr (S. aureus SAP0017 (MRSA) [3]; S. aureus in PBS, 2 hr, detection limit 10 CFU/ml): <10 CFU/ml
survival of microbes (CFU/ml), 3 hr (S. aureus SAP0017 (MRSA) [3]; S. aureus in PBS, 3 hr, detection limit 10 CFU/ml): <10 CFU/ml
logs of S. aureus eradicated in a kill assay (S. aureus SAP0017 (MRSA) [3]): 5-6 logs
MIC P. acnes (P. acnes): 2 µg/mL (≈ 0.00344 mM)

C[C@@H](O)[C@H](NC(=O)[C@H]1CCCN1C(=O)[C@@H](N)CCCCN)C(=O)O [HB2090, K-dPT-OH, reference compound] (H-Lys-[dP]-Thr-OH)
Toxicity EpiDerm [1]: >2000 µg/mL
MIC C. albicans (C. albicans 105): >2000 µg/mL
MIC E. coli (E. coli UB1005): >2000 µg/mL
MIC S. aureus (S. aureus SAP0017 (MRSA) [2]): >2000 µg/mL
MIC P. acnes (P. acnes): >2000 µg/mL

C[C@@H](O)[C@H](NC(=O)[C@H]1CCCN1C(=O)[C@@H](N)CCCCN)C(N)=O [HB2089, K-dPT-NH2, reference compound] (H-Lys-[dP]-Thr-NH2)
Toxicity EpiDerm [1]: >2000 µg/mL
MIC C. albicans (C. albicans 105): >2000 µg/mL
MIC E. coli (E. coli UB1005): >2000 µg/mL
MIC S. aureus (S. aureus SAP0017 (MRSA) [2]): >2000 µg/mL
MIC P. acnes (P. acnes): >2000 µg/mL
